Results published in patent publication US20160287589A1, “SUBSTITUTED-IMIDAZOPYRIDAZINES” (BAYER PHARMA AKTIENGESELLSCHAFT, priority 2013, published 2016).

Legend:
[1] = biological target: T1, MKNK1 (Homo sapiens, UniProt Q9BUB5, T385D); test: MKNK1 kinase assay (MKNK1 TR-FRET assay); type: biochemical; conditions: 10 μM ATP, 15 min preincubation
T1 construct: GST (N); purchased Carna Biosciences 02-145; host or cells: insect cells (baculovirus expression system)

[2] = biological target: T1, MKNK1; test: MKNK1 kinase high ATP assay (TR-FRET-based); type: biochemical; conditions: 2 mM ATP, 15 min preincubation
Summary of the method: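 GST-tagged full-length human MKNK1 (aa 1-424, T344D) from insect cells, preincubated with compound 15 min at 22 °C. Reaction 30 min at 22 °C with 2 mM ATP and 0.06 μM biotinylated peptide in HEPES pH 7.5, Mg2+, DTT. Phosphopeptide detected by TR-FRET (665/622 ratio) with anti-pS6 (pSer236) antibody; normalised to no-inhibitor and no-enzyme controls.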

T1 sequence (Q9BUB5 1-424 isoform Q9BUB5-2 T344D): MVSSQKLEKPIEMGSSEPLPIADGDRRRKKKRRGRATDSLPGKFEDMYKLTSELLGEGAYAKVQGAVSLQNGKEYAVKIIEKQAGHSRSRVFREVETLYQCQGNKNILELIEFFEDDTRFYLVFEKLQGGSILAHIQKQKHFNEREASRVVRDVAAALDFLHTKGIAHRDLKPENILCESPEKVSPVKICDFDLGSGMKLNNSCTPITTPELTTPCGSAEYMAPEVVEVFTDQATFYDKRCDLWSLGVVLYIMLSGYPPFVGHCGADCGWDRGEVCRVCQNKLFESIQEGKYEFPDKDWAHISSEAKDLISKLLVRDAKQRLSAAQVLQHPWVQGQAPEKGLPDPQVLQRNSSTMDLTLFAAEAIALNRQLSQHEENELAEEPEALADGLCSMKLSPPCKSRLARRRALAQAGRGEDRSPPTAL

Row | SMILES | IC50 ([1]; Table 1c) [nM] | IC50 ([2]; Table 2c) [nM] | further results
1 | O=C(c1ccc[nH]1)N1CCC[C@H]1CCOc1ccc2ncc(-c3cc4ccccc4o3)n2n1 [Example I-61, [(2S)-2-(2-{[3-(1-Benzofuran-2-yl)imidazo[1,2-b]-pyridazin-6-yl]oxy}ethyl)pyrrolidin-1-yl](1H-pyrrol-2-yl)methanone] | – | – | IC50 ([1]; Table 1a): 2.9 nM; IC50 ([2]; Table 2a): 6.7 nM
2 | CCN(CCOC(C)(C)C)c1nccc2oc(-c3cnc4ccc(O[C@H]5C[C@H](N)C5)nn34)cc12 [III-108, 2-{6-[(trans-3-Aminocyclobutyl)oxy]imidazo[1,2-b]pyridazin-3-yl}-N-(2-tert-butoxyethyl)-N-ethylfuro[3,2-c]pyridin-4-amine] | 1.9 | 0.5 | –
3 | C[C@H]1COCCN1c1cccc2oc(-c3cnc4ccc(OC[C@@H]5CCC(=O)N5)nn34)cc12 [II-33, (5S)-5-{[(3-{4-[(3S)-3-methylmorpholin-4-yl]-1-benzofuran-2-yl}imidazo[1,2-b]pyridazin-6-yl)oxy]methyl}pyrrolidin-2-one] | – | – | IC50 ([1]; Table 1b): 16.3 nM; IC50 ([2]; Table 2b): 24.4 nM
4 | CC(C)CC(=O)NCCOc1ccc2ncc(-c3cc4ccccc4o3)n2n1 [Example I-72, N-(2-{[3-(1-Benzofuran-2-yl)imidazo[1,2-b]-pyridazin-6-yl]oxy}ethyl)-3-methylbutanamide] | – | – | IC50 ([1]; Table 1a): 4.8 nM; IC50 ([2]; Table 2a): 14.7 nM
5 | C[C@H](N)COc1ccc2ncc(-c3cc4c(N(C)CCCN5CCCC5)nccc4o3)n2n1 [III-12, 2-(6-{[(2S)-2-Aminopropyl]oxy}imidazo[1,2-b]pyridazin-3-yl)-N-methyl-N-[3-(pyrrolidin-1-yl)propyl]furo[3,2-c]pyridin-4-amine] | 8.6 | 43.1 | –
6 | C[C@H](N)COc1ccc2ncc(-c3cc4c(N5CCOC[C@H]5C)nccc4o3)n2n1 [III-25, (2S)-1-[(3-{4-[(3R)-3-Methylmorpholin-4-yl]furo[3,2-c]pyridin-2-yl}imidazo-[1,2-b]pyridazin-6-yl)oxy]propan-2-amine] | 9.2 | 13.7 | –
7 | CN1CCN(c2cccc3oc(-c4cnc5ccc(OC[C@H]6CCC(=O)N6)nn45)cc23)CC1 [II-18, (5R)-5-[({3-[4-(4-Methylpiperazin-1-yl)-1-benzofuran-2-yl]imidazo[1,2-b]-pyridazin-6-yl}oxy)methyl]pyrrolidin-2-one] | – | – | IC50 ([1]; Table 1b): 0.4 nM; IC50 ([2]; Table 2b): 0.4 nM
8 | C[C@H](N)COc1ccc2ncc(-c3cc4c(N5CCN(C)CC5)nccc4o3)n2n1 [III-8, (2S)-1-({3-[4-(4-Methylpiperazin-1-yl)furo[3,2-c]pyridin-2-yl]imidazo[1,2-b]pyridazin-6-yl}oxy)propan-2-amine] | 7.2 | 16.3 | –
9 | C[C@H](N)COc1ccc2ncc(-c3cc4c(N5CCC[C@@H]5CO)nccc4o3)n2n1 [III-14, {(2R)-1-[2-(6-{[(2S)-2-Aminopropyl]oxy}imidazo[1,2-b]pyridazin-3-yl)furo-[3,2-c]pyridin-4-yl]pyrrolidin-2-yl}methanol] | 6.9 | 17.9 | –
10 | CC(C)(C)C(=O)N1CCC[C@H]1CCOc1ccc2ncc(-c3cc4cc(Cl)ccc4o3)n2n1 [Example I-40, 1-[(2S)-2-(2-{[3-(5-Chloro-1-benzofuran-2-yl)imidazo[1,2-b]pyridazin-6-yl]-oxy}ethyl)pyrrolidin-1-yl]-2,2-dimethylpropan-1-one] | – | – | IC50 ([1]; Table 1a): 26 nM; IC50 ([2]; Table 2a): 76.4 nM
11 | O=C(c1cccs1)N1CCC[C@H]1CCOc1ccc2ncc(-c3cc4ccccc4o3)n2n1 [Example I-43, [(2S)-2-(2-{[3-(1-Benzofuran-2-yl)imidazo[1,2-b]pyridazin-6-yl]oxy}ethyl)pyrrolidin-1-yl](thiophen-2-yl)methanone] | – | – | IC50 ([1]; Table 1a): 1 nM; IC50 ([2]; Table 2a): 1.3 nM
12 | CCN(CCOC(C)(C)C)c1nccc2oc(-c3cnc4ccc(OC[C@H]5CCC(=O)N5)nn34)cc12 [III-80, (5R)-5-{[(3-{4-[(2-tert-Butoxyethyl)(ethyl)amino]furo[3,2-c]pyridin-2-yl}imidazo[1,2-b]pyridazin-6-yl)oxy]methyl}pyrrolidin-2-one] | 0.4 | 0.2 | –
13 | COC(=O)N1CCC[C@H]1CCOc1ccc2ncc(-c3cc4ccccc4o3)n2n1 [Example I-10, Methyl (2S)-2-(2-{[3-(1-benzofuran-2-yl)imidazo[1,2-b]pyridazin-6-yl]oxy}-ethyl)pyrrolidine-1-carboxylate] | – | – | IC50 ([1]; Table 1a): 3.2 nM; IC50 ([2]; Table 2a): 9.9 nM
14 | C[C@@H]1CN(c2cccc3oc(-c4cnc5ccc(OCC(F)(F)F)nn45)cc23)CCN1 [II-59, 3-{4-[(3R)-3-methylpiperazin-1-yl]-1-benzofuran-2-yl}-6-(2,2,2-trifluoroethoxy)im-idazo[1,2-b]pyridazine] | – | – | IC50 ([1]; Table 1b): 6.4 nM; IC50 ([2]; Table 2b): 2 nM
15 | CCN(CCOC)c1nccc2oc(-c3cnc4ccc(OC[C@@H](C)N)nn34)cc12 [III-4, 2-(6-{[(2R)-2-Aminopropyl]oxy}imidazo[1,2-b]pyridazin-3-yl)-N-ethyl-N-(2-methoxyethyl)furo[3,2-c]pyridin-4-amine] | 0.6 | 0.4 | –
16 | O=C(NCCOc1ccc2ncc(-c3cc4ccccc4o3)n2n1)c1ccccn1 [Example I-70, N-(2-{[3-(1-Benzofuran-2-yl)imidazo[1,2-b]-pyridazin-6-yl]oxy}ethyl)pyridine-2-carboxamide] | – | – | IC50 ([1]; Table 1a): 15.1 nM; IC50 ([2]; Table 2a): 45.8 nM

Now from value to compound, other results behind:

Row | IC50 ([1]; Table 1c) [nM] | IC50 ([2]; Table 2c) [nM] | SMILES | further results
17 | 0.4 | 0.1 | CN(C)[C@@H]1CCN(c2nccc3oc(-c4cnc5ccc(OC[C@H]6CCC(=O)N6)nn45)cc23)C1 [III-64, (5R)-5-{[(3-{4-[(3R)-3-(Dimethylamino)pyrrolidin-1-yl]furo[3,2-c]pyridin-2-yl}imidazo[1,2-b]pyridazin-6-yl)oxy]methyl}pyrrolidin-2-one] | –
18 | 6.8 | 31.2 | N[C@H]1C[C@H](Oc2ccc3ncc(-c4cc5c(N6CCC[C@@H]6CO)nccc5o4)n3n2)C1 [III-102, [(2R)-1-(2-{6-[(trans-3-Aminocyclobutyl)oxy]imidazo[1,2-b]pyridazin-3-yl}furo[3,2-c]pyridin-4-yl)pyrrolidin-2-yl]methanol] | –
19 | 0.7 | 1.1 | O=C1CC[C@H](COc2ccc3ncc(-c4cc5c(N6CCC(CO)CC6)nccc5o4)n3n2)N1 [III-77, (5R)-5-{[(3-{4-[4-(Hydroxymethyl)piperidin-1-yl]furo[3,2-c]pyridin-2-yl}imidazo[1,2-b]pyridazin-6-yl)oxy]methyl}pyrrolidin-2-one] | –
20 | 4.2 | 8.5 | CC(C)(C)[Si](C)(C)OC[C@H]1CCCN1c1nccc2oc(-c3cnc4ccc(OC[C@H]5CCC(=O)N5)nn34)cc12 [III-66, (5R)-5-{[(3-{4-[(2R)-2-({[tert-Butyl(dimethyl)silyl]oxy}methyl)pyrrolidin-1-yl]furo[3,2-c]pyridin-2-yl}imidazo[1,2-b]pyridazin-6-yl)oxy]methyl}pyrrolidin-2-one] | –
21 | 2.8 | 6.2 | CN(CCCO)c1nccc2oc(-c3cnc4ccc(OCCCS(C)(=O)=O)nn34)cc12 [III-54, 3-[Methyl(2-{6-[3-(methylsulfonyl)propoxy]imidazo[1,2-b]pyridazin-3-yl}furo[3,2-c]pyridin-4-yl)amino]propan-1-ol] | –
22 | 1 | 4.4 | C[C@@H]1COCCN1c1nccc2oc(-c3cnc4ccc(OCCCS(C)(=O)=O)nn34)cc12 [III-58, 3-{4-[(3R)-3-Methylmorpholin-4-yl]furo[3,2-c]pyridin-2-yl}-6-[3-(methyl-sulfonyl)propoxy]imidazo[1,2-b]pyridazine] | –
23 | 0.8 | 1.7 | CN(C)[C@H]1CCN(c2nccc3oc(-c4cnc5ccc(OC[C@H]6CCC(=O)N6)nn45)cc23)C1 [III-75, (5R)-5-{[(3-{4-[(3S)-3-(Dimethylamino)pyrrolidin-1-yl]furo[3,2-c]pyridin-2-yl}imidazo[1,2-b]pyridazin-6-yl)oxy]methyl}pyrrolidin-2-one] | –
24 | 1 | 1.5 | CN(C)C1CCN(c2nccc3oc(-c4cnc5ccc(OC[C@H]6CCC(=O)N6)nn45)cc23)CC1 [III-74, (5R)-5-{[(3-{4-[4-(Dimethylamino)piperidin-1-yl]furo[3,2-c]pyridin-2-yl}imidazo[1,2-b]pyridazin-6-yl)oxy]methyl}pyrrolidin-2-one] | –
25 | 10.2 | 9.2 | N[C@H]1C[C@H](Oc2ccc3ncc(-c4cc5c(N6CCN(c7ccccc7)CC6)nccc5o4)n3n2)C1 [III-106, trans-3-({3-[4-(4-Phenylpiperazin-1-yl)furo[3,2-c]pyridin-2-yl]imidazo[1,2-b]pyridazin-6-yl}oxy)cyclobutanamine] | –
26 | 3.5 | 6 | O=C1CC[C@H](COc2ccc3ncc(-c4cc5c(N6CCN(c7ccccc7)CC6)nccc5o4)n3n2)N1 [III-76, (5R)-5-[({3-[4-(4-Phenylpiperazin-1-yl)furo[3,2-c]pyridin-2-yl]imidazo[1,2-b]pyridazin-6-yl}oxy)methyl]pyrrolidin-2-one] | –
27 | 2.2 | 4.7 | CS(=O)(=O)CCCOc1ccc2ncc(-c3cc4c(N5CCOCC5)nccc4o3)n2n1 [III-42, 6-[3-(Methylsulfonyl)propoxy]-3-[4-(morpholin-4-yl)furo[3,2-c]pyridin-2-yl]imidazo[1,2-b]pyridazine] | –
28 | 1 | 0.9 | CCN(CCOC)c1nccc2oc(-c3cnc4ccc(OC[C@@H]5COCCN5)nn34)cc12 [III-35, N-Ethyl-N-(2-methoxyethyl)-2-{6-[(3S)-morpholin-3-ylmethoxy]imidazo[1,2-b]pyridazin-3-yl}furo[3,2-c]pyridin-4-amine] | –
29 | 5.7 | 5.3 | CN1CCN(c2nccc3oc(-c4cnc5ccc(OCCCS(C)(=O)=O)nn45)cc23)CC1 [III-43, 3-[4-(4-Methylpiperazin-1-yl)furo[3,2-c]pyridin-2-yl]-6-[3-(methylsulfonyl)-propoxy]imidazo[1,2-b]pyridazine] | –
